Values joined by “and” are separate entries in the source; they are usually repeats but may differ in a detail not shown here. Equal entries are not always repeated.
Experiments:
[1] = RNA encapsulation efficacy (EE %) by Quant-IT Ribogreen kit; assay type: physicochemical; conditions: LNP
Method: (§1) The LNP size and polydispersity index (PDI), determined by dynamic light scattering (DLS), and zeta potential were measured by a Zetasizer machine (Malvern). RNA concentration and encapsulation efficacy (EE %) were analyzed by the Quant-IT Ribogreen kit by calculating the percentage encapsulation at 100%—(RNA-LNPs/RNA-LNPs with Triton X-100).

hEPO = assay: In vivo expression by IM: serum hEPO concentration by ELISA; conditions: IM 0.075 mg/kg, male C57BL/6J mice N=3, Formulation 001, RNA 019
Method: Circular RNA payloads were suspended in 25 mM Acetate Buffer (pH 4.5). To form LNPs, three volumes of human erythropoietin (hEPO) encoding cirRNA (SEQ ID NO:2), were mixed with one volume of lipids in ethanol solution by microfluidic mixing with the INano™ L+ (Micro& Nano) at a flow rate of 12 ml/min. The molar ratio of ionizable lipid to ribonucleotide was 6. After encapsulation, the particles were dialyzed twice against PBS. The LNP formulation was concentrated to targeted RNA concentration by Amicon® Ultra Centrifugal Filter (100 kDa MWCO) and filtered by a 0.65/0.22 um sterile filter.
6-8 week old, male C57BL/6J mice (N=3) were injected with 0.075 mg*kg−1 of RNA-LNPs encoding for hEPO by intramuscular injection. At 2-/6-/24-/48-/72 h-hours post injection, about 80 μL blood will be harvested and immediately added to the procoagulant containing tube. Stand for 30 min at room temperature and then centrifuged at 2500 g×10 min to obtain serum. About 30 μL serum samples will be aliquoted for hEPO concentration detection by ELISA kit (STEMCELL Technologies).

Hep G2 cells [2] = assay: In vitro expression: luciferase activity in Hep G2 cells transfected with RNA-LNPs; assay type: cell-based; conditions: 100 ng/mL RNA-LNPs, 72 hours post transfection
Method: 2E5 Hep G2 cells were transfected with 100 ng/mL of RNA-LNPs encoding for firefly-luciferase. At 72 hours post transfection, the cells were washed and lysed. The luciferase expression (2-well repeat) was determined in the cell lysates with the luciferase assay reagent kit (Promega), according to the kit protocol, luciferase activity was measured by a luminometer.

Balb/c mice = assay: In vivo expression by IV, 0.05 mg/kg luciferase RNA-LNPs, IVIS luminescence; conditions: Formulation No. 010, RNA No. 331, female Balb/c mice, 0.05 mg*kg−1 intravenous; for Whole body at 24 h (p/s) (Mean): 24 hours post injection; for Whole body at 72 h (p/s) (Mean): 72 hours post injection
Method in brief: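 IVIS bioluminescence was read after IP luciferin (15 mg/ml): whole-body at 24 and 72 h, or whole-body/liver/spleen at 24 h. Dosing was a single IV injection of 0.05 mg*kg−1 RNA-LNPs encoding firefly luciferase into 7-8 week old female Balb/c mice, N=3.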

C57BL/6J mice = assay: In vivo expression by ID, whole-body/injection site skin/lymph node luminescence; conditions: intradermal 0.15 mg/kg, 72 h post injection, female C57BL/6J mice N=3, Formulation 001, RNA 331
Method: 7-8 week old, female C57BL/6J mice (N=3) were injected with 0.15 mg*kg−1 of RNA-LNPs encoding for firefly-luciferase by intradermal injection. At 72-hours post injection, animals were intraperitoneally injected with 15 mg/mi of Luciferin substrate and whole-body/injection site skin/lymph node luminescence were determined by a bioluminescent in vivo imaging system (IVIS).

injection site skin = assay: In vivo tolerability after intradermal injection: H&E staining of injection site skin; parameters: species or system C57BL/6J mice; key to Infiltration, mononuclear cells, dermis/subcutaneous, focal, Grade / Edema, subcutaneous, focal, Grade / Erosion, focal, Grade / Skin, Grade: 1==minimal; 2=mild; 3=moderate; 4=marked; 5=severe; N=Normal; NA=Not applicable; —=No data; conditions: intradermal 0.15 mg/kg, 72 h, Formulation 001, RNA 331; for Edema, subcutaneous, focal, Grade / Erosion, focal, Grade / Infiltration, mononuclear cells, dermis/subcutaneous, focal, Grade: per animal; for Total score: sum of lesion grades of the group (N=3)
Method: 7-8 week old, female C57BL/6J mice (N=3) were injected with 0.15 mg*kg−1 of RNA-LNIPs encoding for firefly-luciferase by intradermal injection. At 72-hours post injection, injection site skin from each animal was collected in 10% formalin, for H&E staining. PBS group (N=2) as control. (Note: 1==minimal, 2=mild, 3=moderate, 4=marked, 5=severe; N=Normal; NA=Not applicable; —=No data)

[3] = LNP size and polydispersity index (PDI) by dynamic light scattering (Zetasizer); assay type: physicochemical; conditions: for Size (nm): Formulation No. 010 (Ionizable lipid:DSPC:cholesterol:DSPE-PEG2000 = 38:30:30:2, N/P 6), RNA No. 331
Method: as §1

Hep G2 cells [4] = assay: In vitro toxicity: Hep G2 cell viability by CellTiter-Glo; assay type: cell-based; conditions: 72 hours post transfection, cell only = 100%
Method: 2E5 Hep G2 cells were transfected with 1 μg/mL RNA-LNPs. At 72 hours post transfection, cell viability (2-well repeat) was determined with the CellTiter-Glo® reagent kit, according to the kit protocol, measured by a luminometer. Cell only as control (100%).
The cell viability was calculated according to the following formula: […]

[5] = Formulation No. 001, RNA No. 019 (hEPO)
[6] = Formulation No. 001, RNA No. 331
[7] = Formulation No. 010, RNA No. 331
[8] = Formulation No. 010, RNA No. 331 (firefly-luciferase)
[9] = 1 μg/mL RNA-LNPs, Formulation 001, RNA 331
[10] = Formulation No. 010, RNA No. 331, 1 μg/mL RNA-LNPs

SMILES | EE (%) [1, 5] [%] | EE (%) [1, 6] [%] | EE (%) [1, 7] [%] | In vitro Expression (Mean) (Hep G2 cells [2]; Formulation 001, RNA 331) | In vitro Expression (Mean) (Hep G2 cells [2]; [8]) | Whole body at 24 h (p/s) (Mean) (Balb/c mice) | Whole body at 72 h (p/s) (Mean) (Balb/c mice) | Injection site Skin (p/s) (C57BL/6J mice) | Lymph node (p/s) (C57BL/6J mice) | Whole body (p/s) (C57BL/6J mice) | Edema, subcutaneous, focal, Grade (injection site skin) | Erosion, focal, Grade (injection site skin) | Infiltration, mononuclear cells, dermis/subcutaneous, focal, Grade (injection site skin) | Total score (injection site skin) | PDI [3, 6] | Size [3, 6] [nm] | Size (nm) [3] [nm] | PDI [3, 7] | In vitro cell viability (%) (Mean) (Hep G2 cells [4]; [9]) | In vitro cell viability (%) (Mean) (Hep G2 cells [4]; [10]) | also measured
CCCCC/C=C\C/C=C\CCCCCCCC(=O)NC(COC(=O)NCCN1CCCCCC1)C(=O)OCCCCCCCC(=O)OC(CCCCCCCC)CCCCCCCC (stereo not shown) [Lipid 550] | 92.20 | 94.50 | 94.88 | 1.89E+05 | 5.74E+05 | 2.36E+08 | 4.96E+07 | 1.33E+07 | 2.06E+06 | 3.09E+07 | 1 | 1 and — (2×) | 1 | 7 | 0.15 | 72.66 | 67.81 | 0.13 | 67.09 | 87.47 | hEPO conc. (ng/mL) at 2 h (hEPO): 1.56 ng/mL; hEPO conc. (ng/mL) at 6 h (hEPO): 6.19 ng/mL; hEPO conc. (ng/mL) at 24 h (hEPO): 9.69 ng/mL; hEPO conc. (ng/mL) at 48 h (hEPO): 2.38 ng/mL; hEPO conc. (ng/mL) at 72 h (hEPO): 0.67 ng/mL; PDI [3, 5]: 0.04; Size [3, 5]: 66.58 nm
CCCCC/C=C\C/C=C\CCCCCCCC(=O)N[C@@H](COC(=O)NCCN1CCCCC1)C(=O)OCCCCCCCC(=O)OC(CCCCCCCC)CCCCCCCC [Lipid 601] | 90.47 | 95.30 | 95.98 | 9.94E+05 | 6.24E+05 | 3.82E+08 | 8.02E+07 | 9.69E+06 | 1.89E+06 | 5.92E+07 | 1 | — | 1 | 6 | 0.09 | 80.16 | 62.33 | 0.08 | 81.18 | 98.14 | hEPO conc. (ng/mL) at 2 h (hEPO): 1.12 ng/mL; hEPO conc. (ng/mL) at 6 h (hEPO): 7.35 ng/mL; hEPO conc. (ng/mL) at 24 h (hEPO): 12.74 ng/mL; hEPO conc. (ng/mL) at 48 h (hEPO): 3.29 ng/mL; hEPO conc. (ng/mL) at 72 h (hEPO): 1.06 ng/mL; PDI [3, 5]: 0.04; Size [3, 5]: 73.40 nm
CCCCC/C=C\C/C=C\CCCCCCCC(=O)N[C@@H](COC(=O)NCCN1CCCCCC1)C(=O)OCCCCCCCC(=O)OC(CCCCCCCC)CCCCCCCC [Lipid 602] | 95.79 | 97.94 | 97.13 | 5.82E+05 | 6.30E+05 | 2.66E+08 | 1.24E+08 | 3.02E+07 | 3.01E+06 | 1.40E+08 | 1 (2×) and 2 | — | 1 | 7 | 0.08 | 76.34 | 64.73 | 0.16 | 82.68 | 84.17 | hEPO conc. (ng/mL) at 2 h (hEPO): 1.02 ng/mL; hEPO conc. (ng/mL) at 6 h (hEPO): 5.02 ng/mL; hEPO conc. (ng/mL) at 24 h (hEPO): 7.65 ng/mL; hEPO conc. (ng/mL) at 48 h (hEPO): 2.44 ng/mL; hEPO conc. (ng/mL) at 72 h (hEPO): 0.76 ng/mL; PDI [3, 5]: 0.04; Size [3, 5]: 67.47 nm
CCCCC/C=C\C/C=C\CCCCCCCC(=O)N[C@H](COC(=O)NCCN1CCCCCC1)C(=O)OCCCCCC(=O)OC(CCCCCCCC)CCCCCCCC [Lipid 730] |  | 97.08 | 96.20 | 5.98E+05 | 7.72E+05 | 2.24E+08 | 8.49E+07 | 1.63E+07 | 3.33E+06 | 2.81E+07 | 1 | — | 1 | 6 | 0.05 | 76.53 | 59.50 | 0.09 | 75.29 | 98.64 | 

— patent US20260200849A1, “CATIONIC LIPIDS AND PREPARATION METHOD THEREOF” (RiboX Therapeutics HK Limited, priority 2024, published 2026)
